Blank lines part the entries; values can stand above or below the compound they belong to.
Assays:
Xanthine oxidase = Xanthine oxidase (Homo sapiens, UniProt P47989); test: Inhibition test on xanthine oxidase (superoxide anion revealed by NBT); type: biochemical
Text: (§1) 1.2 Methods and principle of this experiment: The anti-free radical (anti-FR) activity has been evaluated by chemical tests for the evaluation of the potential to scavenge free radicals R (DPPH test) and hydroxyl radicals HO. The anti-FR activity has been evaluated also by biochemical tests to address the potential for scavenging of a kind of reactive oxygen species (ROS), the so called super oxide anion (O2). The O2 originates mainly from xanthine oxydase and lipoxygenase activities. Xanthine oxydase (XOD) is an enzyme activated during oxidative stress, this enzyme catalyses the O2 release along the degradation of hypoxanthin (HX) which has been overproduced by a disruption of energetic cell metabolism.
Xanthine oxydase is an enzyme induced during oxidative stress: it catabolises the puric bases (adenine, guanine) in uric acid and superoxide anions O2— dismutates spontaneously (or by the action of SOD=superoxyde dismutase) in H2O2 and O2.
A substance with an anti-free-radical-activity absorbs or destroys the O2— anion and thereby it reduces the optical density.
The results are expressed in percent of inhibition of O2— radical against control. The aim of this test is to show an anti-free radical activity.
As to the meaning of U/ml: for an enzyme, the dose is expressed in Units/ml for unity. In the other cases, it is not enzymes.

human fibroblasts = test: Inhibition of UVA effect on human fibroblasts (released MDA); type: cell-based
Experimental: Aim of the experiment: Determination of the potential of the tested ingredient to reduce negative effects of UV-A radiation on the survival rate of human fibroblasts.
• Seeding of human fibroblasts in a growth medium • Incubation for 3 days at 37° C., CO2=5% (atmosphere: 5% carbon dioxide in air) • Exchange of the growth medium by a medium with a range of concentration of ingredients to be tested • Incubation for 2 days at 37° C., CO2=5% • Exchange of the medium with ingredients by a balanced salt solution and UV-A irradiation (20 J/cm^2) • Recording of released MDA levels by spectro-fluorimetry. (MDA (malonaldialdehyde) is a product of oxidative degradation of lipids from cell membranes)

[1] = tested on: Raphanus sativus seed germination; details: cited from earlier work
[2] = tested on: strains of Gram-positive and Gram-negative bacteria; details: same bacterial strains; cited from earlier work
[3] = Anti-HO test with deoxyribose (Fenton's reaction), reaction without EDTA
Text: as §1
[…] The optical density at 532 nm corresponds to the level of oxidised deoxyribose. An anti-free radical substance reacts with these radicals HO— and reduces the formation of this pink compound.
(§2) The results are expressed in percent of inhibition of HO— radical against control. The aim of this test is to show an anti-free radical activity.

B16 melanocytes = test: Inhibition of melanin synthesis on B16 melanocytes; type: cell-based; details: for Rate of cellular proteins / Rate of melanin: control = 100; for rate of released melanin (comment): treated B16 melanocytes
Experimental: Aim of the experiment: to evaluate the potential of compounds to lower the melanin synthesis; the compounds have been tested on cell culture of melanocytes called B16.
• Seeding of melanocytes in growth medium • Incubation for 3 days at 37° C., CO2=5% (atmosphere: 5% carbon dioxide in air) • Exchange of the growth medium by a medium with a range of concentration of ingredients to be tested • Incubation for 3 days at 37° C., CO2=5% (atmosphere: 5% carbon dioxide in air) • Recording of Cellular levels of protein by Bradford's method • Recording of melanin by a spectrophotometric method (OD at 475 nm)

Lipoxygenase = test: Inhibition test on lipoxygenase (superoxide anions, luminol); type: biochemical
Text: as §1
Lipoxygenase was incubated with a specific substrate (unsaturated fatty acid) and the ingredient to be tested. Then the rate of released superoxide anions was evaluated by a luminescent probe (luminol). Caffeic acid was tested as reference ingredient.

[4] = Anti-DPPH test (free radical scavenging); details: average of 2 assays
Text: as §1, with “The O2 originates mainly from xanthine oxydase and lipoxygenase activities.” left out, “metabolism. […] Principle: DPPH (diphenylpicryl-hydrazyl) is a stable free radical which forms a purple solution. The purple solution of DPPH^o has a whitening effect due to components that act as radical-scavengers. […] The results are expressed in percent inhibition of DPPH radical against control. The aim of this test is to show an anti-free radical activity.” for “metabolism.”

[5] = Anti-HO test with deoxyribose (Fenton's reaction), reaction with EDTA
Text: as §1
Principle: The hydroxyl radical HO— (formed by H2O2 in presence of Fe++ with EDTA) oxidises deoxyribose (a component of DNA), then a pink compound is formed by condensation of thiobarbituric acid with oxidised form of deoxyribose. The optical density at 532 nm corresponds to the level of oxidised deoxyribose. An anti-free radical substance reacts with these radicals HO— and reduces the formation of this pink compound.
as §2

Sequence of Xanthine oxidase (P47989 whole entry, species assumed): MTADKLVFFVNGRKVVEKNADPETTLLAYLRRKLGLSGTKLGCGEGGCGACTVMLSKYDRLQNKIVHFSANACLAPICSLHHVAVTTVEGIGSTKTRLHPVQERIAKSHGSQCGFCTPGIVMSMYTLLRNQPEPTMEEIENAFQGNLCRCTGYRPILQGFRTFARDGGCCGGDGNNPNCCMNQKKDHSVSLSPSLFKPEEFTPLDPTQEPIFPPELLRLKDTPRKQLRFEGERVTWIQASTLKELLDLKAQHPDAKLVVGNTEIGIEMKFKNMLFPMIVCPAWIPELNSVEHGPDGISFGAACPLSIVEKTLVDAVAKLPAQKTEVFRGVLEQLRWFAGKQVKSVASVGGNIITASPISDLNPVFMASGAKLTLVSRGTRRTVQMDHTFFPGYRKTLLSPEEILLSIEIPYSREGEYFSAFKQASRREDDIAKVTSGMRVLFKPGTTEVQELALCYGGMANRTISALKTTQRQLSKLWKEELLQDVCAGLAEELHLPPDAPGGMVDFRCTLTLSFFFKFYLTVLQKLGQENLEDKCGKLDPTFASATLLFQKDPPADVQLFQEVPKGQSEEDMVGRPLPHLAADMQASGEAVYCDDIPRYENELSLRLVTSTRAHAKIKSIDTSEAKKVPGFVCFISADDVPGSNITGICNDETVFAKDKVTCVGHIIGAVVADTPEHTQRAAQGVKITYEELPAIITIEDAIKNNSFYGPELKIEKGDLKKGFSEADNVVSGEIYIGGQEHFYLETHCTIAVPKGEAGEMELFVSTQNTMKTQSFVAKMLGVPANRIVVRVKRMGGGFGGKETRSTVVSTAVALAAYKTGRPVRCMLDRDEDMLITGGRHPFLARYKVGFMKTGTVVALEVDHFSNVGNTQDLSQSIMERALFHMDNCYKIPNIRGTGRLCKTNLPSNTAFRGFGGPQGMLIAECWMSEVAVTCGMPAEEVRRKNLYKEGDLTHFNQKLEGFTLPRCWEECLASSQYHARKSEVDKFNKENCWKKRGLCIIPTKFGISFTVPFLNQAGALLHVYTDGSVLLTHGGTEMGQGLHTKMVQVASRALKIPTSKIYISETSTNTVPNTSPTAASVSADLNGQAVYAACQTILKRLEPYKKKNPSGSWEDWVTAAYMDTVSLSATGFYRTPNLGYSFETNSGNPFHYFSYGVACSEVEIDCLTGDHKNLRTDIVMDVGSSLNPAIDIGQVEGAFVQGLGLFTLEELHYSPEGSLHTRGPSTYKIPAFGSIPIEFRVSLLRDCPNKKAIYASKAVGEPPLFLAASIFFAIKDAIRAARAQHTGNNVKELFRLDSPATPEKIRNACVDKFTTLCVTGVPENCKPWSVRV

% of inhibition of O2— radical against control (Xanthine oxidase; 0.5 U/ml): 18% | % of inhibition of O2— radical against control (Xanthine oxidase; 5 U/ml): 50% | % of inhibition of O2— radical against control (Xanthine oxidase; 50 U/ml): 95% | IC50 (Xanthine oxidase; enzyme reference, Units/ml): 5 U/ml
Compound: SOD: superoxyde dismutase, enzyme used as reference, dosed in U/ml

Compound: Vitamin E
rate of released MDA from UV-A irradiated fibroblasts (comment) (human fibroblasts; UV-A irradiated human fibroblasts): strongly decreased | Rate of released MDA (human fibroblasts; dose 0.0003 % w/v, UV-A 20 J/cm2 (irradiated control = 100)): 7 % against control

Compound: O=c1c(O)c(-c2ccc(O)c(O)c2)oc2cc(O)cc(O)c12 [quercetin]
percentage of seed germination and root and epicotyl growth [1]: decrease | antibacterial activity among standards of the identified flavonoids [2]: highest activity

Compound: c1cnc2c(c1)ccc1cccnc12 [o-phenanthroline]
% of inhibition of HO— radical/control ([3]; 0.02 % (w/v)): 42% | % of inhibition of HO— radical/control ([3]; 0.06 % (w/v)): 71%

Compound: O=c1cc(-c2ccc(O)cc2)oc2cc(O)cc(O)c12 [apigenin]
percentage of seed germination and root and epicotyl growth [1]: decrease | antibacterial activity among standards of the identified flavonoids [2]: highest activity

Compound: O=c1cc(CO)occ1O [kojic acid]
Rate of cellular proteins (B16 melanocytes; dose 0.03 % w/v): 109 % against control | Rate of melanin (B16 melanocytes; dose 0.03 % w/v): 32 % against control | rate of released melanin (comment) (B16 melanocytes): strongly decreased

% of inhibition (lipoxygenase, released superoxide anions) (Lipoxygenase; 0.00002 % (w/v)): 18% | % of inhibition (lipoxygenase, released superoxide anions) (Lipoxygenase; 0.0002 % (w/v)): 53%
Compound: O=C(O)/C=C/c1ccc(O)c(O)c1 [caffeic acid]

Compound: O=C1O[C@H]([C@@H](O)CO)C(O)=C1O [Vitamin C, ascorbic acid]
% of inhibition of DPPH radical/control ([4]; 0.0003 % (w/v)): 19% | % of inhibition of DPPH radical/control ([4]; 0.001 % (w/v)): 58% | % of inhibition of DPPH radical/control ([4]; 0.003 % (w/v)): 74% | % of inhibition of DPPH radical/control ([4]; 0.01 % (w/v)): 68%

Compound: OC[C@@H](O)[C@@H](O)[C@H](O)[C@H](O)CO [mannitol]
% of inhibition of HO— radical/control ([5]; 0.06 % (w/v)): 25% | % of inhibition of HO— radical/control ([5]; 0.6 % (w/v)): 68%

Compound: OC[C@H]1O[C@@H](Oc2ccc(O)cc2)[C@H](O)[C@@H](O)[C@@H]1O [arbutin]
Rate of cellular proteins (B16 melanocytes; dose 0.2 % w/v): 91 % against control | Rate of melanin (B16 melanocytes; dose 0.2 % w/v): 64 % against control | rate of released melanin (comment) (B16 melanocytes): strongly decreased
